# From US20230181527A1, “APICAL SODIUM-DEPENDENT TRANSPORTER INHIBITOR COMPOSITIONS” (Mirum Pharmaceuticals, Inc., priority 2021, published 2023)
# Legend:
# MDR2−/− mice = test: MDR2−/− mouse model of sclerosing cholangitis; format: in vivo
# Protocol: Methods: 30-day-old female MDR2−/− mice (FVB background) were treated daily for 14 days by orogastric gavage with either vehicle control (Kolliphor and CMC), 100 mg/kg/day bezafibrate (pan-PPAR agonist), 100 mg/kg/day fenofibrate (PPARα agonist), 10 mg/kg seladelpar (PPARδ agonist), 0.008% SC-435 (non-absorbable IBAT inhibitor) admixed to chow, or a combination of SC-435 and PPAR agonists.
# [1] = Maralixibat open label study in PFIC (LUM001-501): pruritus and concomitant antipruritic medication; format: in vivo, human
# From the text: In an open label study to evaluate efficacy and long term safety of maralixibat (LUM001) in the treatment of Cholestatic Liver Disease in patients with Progressive Familial Intrahepatic Cholestasis (PFIC) (Study LUM001-501), participants were not allowed to make any changes to their antipruritic therapy during the 13-week treatment period. No new medications used to treat pruritus were to be added during the 13-week treatment period. Therefore, participants had to be on stable antipruritic medication doses (except for weight-based dose adjustments) during the 13-week treatment period. In the long-term exposure period, changes in antipruritic medications were allowed.
# [2] = Maralixibat clinical studies in ALGS (LUM001-304, LUM001-303, LUM001-305): pruritus and concomitant antipruritic medication; format: in vivo, human
# From the text: In Study LUM001-304, participants were not allowed to make any changes to their antipruritic therapy up to Week 22. In Studies LUM001-301 and LUM001-302, no changes to the antipruritic comedications were allowed throughout the period of the primary analysis up to Week 13. Therefore, across all studies, participants had to be on stable antipruritic medication doses (except for weight-based dose adjustments) throughout the randomized controlled periods. […] Participants in LUM001-302 received either 140 μg/kg/day or 280 μg/kg/day of maralixibat (as maralixibat chloride). The long-term LUM001-303 dosing was 280 μg/kg QD and 280 μg/kg BID. The long term LUM001-305 dosing was at 280 μg/kg/day. After these stable-dosing periods in the long-term extension studies, changes in antipruritic medications were allowed. Weight-based dose adjustments in antipruritic medications were anticipated over the course of a 5-year study.
# physchem = details: water
# From the text: Since pediatric patients are the target patient population for the proposed cholestatic disease, an oral solution formulation was selected due to its flexibility for dose adjustment based on patient's body weight and the preference for this type of formulation in young children.
# [3] = Solubility of MRX drug substance in water and commercially available vehicles, visual observation; format: physicochemical; details: Water; 0.02 mg/mL
# Protocol: For early pediatric clinical studies, the desired maralixibat solution concentration was in the range of 0.02 to 20 mg/mL (concentration based on maralixibat chloride). Initial formulation studies were conducted to determine the solubility and stability of MRX drug substance in three liquid oral dosing vehicles: water, Pedialyte® (an oral rehydration preparation), and Ora-Sweet® SF (a sugar-free, alcohol-free syrup vehicle for oral preparations). Using these three vehicles, samples were produced with the MRX drug substance at three different concentrations (0.02 mg/mL, 2.0 mg/mL, and 4.0 mg/mL concentrations based on maralixibat chloride). A vortex mixer was used to disperse the drug within the liquid vehicle; drug dissolution status was then visually checked and recorded as in Table 4.
# [4] = female MDR2−/− mice, daily for 14 days
# [5] = Study LUM001-303, long-term extension, of the 19 participants
# [6] = Study LUM001-305, long term extension, of the 34 participants
smiles,measurement,setting,value
CCCCC1(CCCC)CS(=O)(=O)c2ccc(N(C)C)cc2[C@@H](c2ccc(OCc3ccc(C[N+]45CCN(CC4)CC5)cc3)cc2)[C@H]1O.[Cl-] [SC-435],serum ALP,"MDR2−/− mice; female MDR2−/− mice (FVB background), daily for 14 days",increased
same,liver to body weight ratio,MDR2−/− mice; [4],attenuated
same,retention of BA in the liver,MDR2−/− mice; [4],significantly reduced
same,serum BA concentrations,MDR2−/− mice; [4],decreased
same,serum TB concentrations,MDR2−/− mice; [4],reduced
same,potency in reducing serum total BA and TB levels,MDR2−/− mice; mouse model of SC,more potent than PPAR agonists
CCCCC1(CCCC)CS(=O)(=O)c2ccc(N(C)C)cc2[C@@H](c2ccc(OCc3ccc(C[N+]45CCN(CC4)CC5)cc3)cc2)[C@H]1O [maralixibat chloride],pruritus control after discontinuing one or more antipruritic medications,"[1]; 5 exemplary PFIC patients, FIGS. 3A-3E",still maintain control of pruritus
same,participants with a decrease in dose or discontinuation of antipruritic medications,"[1]; Study LUM001-501, N=33",13 participants
same,participants with an increase in dose of antipruritic medication,"[1]; Study LUM001-501, N=33",5 participants
same,"pruritus, ItchRO(Obs) scores","[1]; Study LUM001-501, sustained period of follow-up",general improvements in pruritus
same,pruritus scores,"[2]; ALGS studies, long-term follow-up",consistently improved
same,participants who experienced a decrease in concomitant antipruritic medication,[2]; [5],2 participants
same,participants who experienced an increase in concomitant antipruritic medication,[2]; [5],Five
same,participants with no or minimal change in concomitant antipruritic medication,[2]; [5],12 participants
same,pruritus reduction and proportion of participants reducing concomitant antipruritic medication,"[2]; Study LUM001-304, 400 μg/kg dose, compared with supporting ALGS studies at lower doses",greatest pruritus reduction and the largest proportion of participants reducing concomitant antipruritic medication
same,participants who experienced a decrease in concomitant antipruritic medication,"[2]; Study LUM001-304, after Week 22, long-term extension, of the 29 participants",10 participants
same,participants who experienced a decrease in concomitant antipruritic medication,[2]; [6],10 participants
same,participants who experienced an increase in concomitant antipruritic medication,[2]; [6],Seven
same,participants with no or minimal change in concomitant antipruritic medication,[2]; [6],17 participants
same,solubility,physchem,> 100 mg/mL
same,Solubility Observations,[3],Dissolved Instantly
